Assay results taken from paper PMC10674160, “Synthesis and Preclinical Evaluation of Radiolabeled [^103Ru]BOLD-100” (Pharmaceutics, 2023).

Assay: Tissue distribution in CT26 allograft bearing Balb/c mice (ICP-MS for 3a, gamma counting for 3b)
Format: in vivo
Method: UV/Vis spectra were recorded on a Hitachi U-2000 Dual Beam spectrophotometer. Sample activities were measured on an ISOMED 2010 dose calibrator. For centrifugation during synthesis, a Fisherbrand^TM Mini-Centrifuge from Fisher Scientific was used. Radioactive organ samples were measured on Perkin Elmer Wizard^2 gamma counter. Non-radioactive organ samples were prepared, and the ruthenium content was quantified with ICP-MS. The exact procedure including instrument information can be found in the Supplementary Materials.
For the evaluation of organ distribution, CT26 cells (5 × 10^5 in serum-free medium) were injected subcutaneously into the right flank of Balb/c mice. Animals were controlled for distress development every day and tumor size was assessed regularly using caliper measurements. CT26 cells were inoculated 10 days prior to drug application. Tumor volume was calculated using the formula: (length × width^2); the tumors reached a size of about 500 mm^3. Animals were treated once intravenously (i.v.) via tail-vein injection with 3a or 3b at a dose of 30 mg/kg (dissolved in 0.9% NaCl, 0.6 mg/100 µL/20 g mouse) and a specific activity of 0.64–1.36 MBq/mg for compound 3b. The mice were anesthetized and sacrificed by cervical fracture 4, 24, 48 and 72 h p.i., with n ≥ 2 (3a) and n ≥ 3 (3b) for each time point. Samples of tumor, liver, kidney, muscle, heart, lung, spleen, pancreas, stomach, colon, small intestine, brain, bone, and blood were collected from each mouse. After clotting at RT, serum was isolated from the collected blood samples by centrifugation at 3000 rpm for 10 min twice and stored together with the collected tissue samples at −20 °C. Finally, the ruthenium content was quantified by ICP-MS in the case of the non-radioactive BOLD-100 (3a) and via gamma counting for [^103Ru]BOLD-100 (3b).
An Agilent 7800 ICP-MS (Agilent Technologies, Tokyo, Japan) was being employed, which was equipped with an Agilent SPS 4 autosampler (Agilent Technologies, Tokyo, Japan) and a MicroMist nebulizer at a sample uptake rate of approx. 0.2 mL/min. The Agilent MassHunter software package (Workstation Software, Version C.01.04, 2018) was used for data evaluation. The instrumental parameters […]
Reference source not found..
Ta ble S1: Instrumental parameters for the ICP-MS measurements […]
Spray chamber Scott double-pass
Spraying chamber temp. 2°C
Nebulizer gas 1.06 L min−1
Auxiliary gas 0.90 L min−1
The instrumental limit of quantification (LOQ) was determined at the start of the measurement by […]
LOQ = blank average + 10*STD
Blank corrections were performed for all the samples. Robustness was ensured by tuning the ICP-MS on a daily basis, by using an internal standard (115In) and measuring calibration standards for each […]
Ultrapure water (18.2 MΩ cm, ELGA Water purification system, Purelab Ultra MK 2, UK or 18.2 MΩ cm, Milli-Q Advantage, Darmstadt, Germany), HNO3 (≥69%, Rotipuran Supra, Carl Roth, Karlsruhe, Germany) and H2O2 (30%, Suprapur, Merck, Darmstadt, Germany) were used for all dilutions for ICP-MS measurements. The Ru standard solution was purchased from Labkings (Hilversum, The Netherlands).
For the digestion, approx. 25–50 mg of each organ sample were weighed into PFA-tubes, with 2 mL HNO3 and 100 µL H2O2 being added. The solutions were then placed on a hot plate and heated up for 6 hours using a temperature program with a maximum temperature of 200 °C. After cooling down, the liquids were transferred directly to 15 mL tubes with the remaining solution being removed from the PFA tubes by washing twice with 4 mL ultrapure water, resulting in a final volume of about 10 mL. By writing down the total weight of the resulting liquid, the dilution factor could be calculated.

[1] = Tumor, 24 h p.i., 30 mg/kg i.v.

Structure (SMILES): [Cl][Ru]([Cl])([Cl])[Cl].[Na+].c1ccc2[nH]ncc2c1.c1ccc2[nH]ncc2c1 [3b, [^103Ru]sodium trans-[tetrachloridobis(indazole)ruthenate(III)]]
- tumor/organ ratio Blood cells (Blood cells, 4 h): 0.4 ± 0.1
- %ID/g tissue Blood cells (Blood cells, 4 h p.i., 30 mg/kg i.v.): 11.98 ± 2.26 %ID/g tissue
- %ID/g tissue Blood cells (Blood cells, 24 h p.i., 30 mg/kg i.v.): 3.41 ± 0.97 %ID/g tissue
- %ID/g tissue Blood cells (Blood cells, 48 h p.i., 30 mg/kg i.v.): 2.94 ± 1.32 %ID/g tissue
- %ID/g tissue Blood cells (Blood cells, 72 h p.i., 30 mg/kg i.v.): 2.19 ± 0.96 %ID/g tissue
- tumor/organ ratio Bones (4 h): 3.4 ± 0.5
- %ID/g tissue Bones (4 h p.i., 30 mg/kg i.v.): 1.34 ± 0.30 %ID/g tissue
- tumor/organ ratio Bones (24 h): 5.4 ± 0.6
- %ID/g tissue Bones (24 h p.i., 30 mg/kg i.v.): 1.19 ± 0.29 %ID/g tissue
- tumor/organ ratio Bones (48 h): 7.0 ± 0.8
- %ID/g tissue Bones (48 h p.i., 30 mg/kg i.v.): 0.90 ± 0.24 %ID/g tissue
- tumor/organ ratio Bones (72 h): 4.9 ± 1.7
- %ID/g tissue Bones (72 h p.i., 30 mg/kg i.v.): 1.00 ± 0.15 %ID/g tissue
- tumor/organ ratio Brain (4 h): 10.7 ± 3.3
- %ID/g tissue Brain (4 h p.i., 30 mg/kg i.v.): 0.46 ± 0.20 %ID/g tissue
- tumor/organ ratio Brain (24 h): 51.9 ± 4.4
- %ID/g tissue Brain (24 h p.i., 30 mg/kg i.v.): 0.12 ± 0.02 %ID/g tissue
- tumor/organ ratio Brain (48 h): 53.3 ± 14.3
- %ID/g tissue Brain (48 h p.i., 30 mg/kg i.v.): 0.13 ± 0.05 %ID/g tissue
- tumor/organ ratio Brain (72 h): 54.3 ± 15.1
- %ID/g tissue Brain (72 h p.i., 30 mg/kg i.v.): 0.09 ± 0.05 %ID/g tissue
- %ID/g tissue Colon (4 h p.i., 30 mg/kg i.v.): 3.89 ± 0.96 %ID/g tissue
- %ID/g tissue Colon (24 h p.i., 30 mg/kg i.v.): 1.88 ± 0.37 %ID/g tissue
- %ID/g tissue Colon (48 h p.i., 30 mg/kg i.v.): 2.34 ± 0.72 %ID/g tissue
- %ID/g tissue Colon (72 h p.i., 30 mg/kg i.v.): 2.19 ± 0.77 %ID/g tissue
- tumor/organ ratio Fat (4 h): 5.1 ± 2.1
- tumor/organ ratio Fat (24 h): 10.3 ± 2.1
- tumor/organ ratio Fat (48 h): 13.3 ± 5.0
- tumor/organ ratio Fat (72 h): 8.6 ± 3.5
- tumor/organ ratio Heart (4 h): 0.8 ± 0.2
- %ID/g tissue Heart (4 h p.i., 30 mg/kg i.v.): 5.93 ± 1.10 %ID/g tissue
- tumor/organ ratio Heart (24 h): 2.0 ± 0.2
- %ID/g tissue Heart (24 h p.i., 30 mg/kg i.v.): 3.24 ± 0.73 %ID/g tissue
- tumor/organ ratio Heart (48 h): 2.1 ± 0.2
- %ID/g tissue Heart (48 h p.i., 30 mg/kg i.v.): 2.98 ± 0.41 %ID/g tissue
- tumor/organ ratio Heart (72 h): 1.5 ± 0.4
- %ID/g tissue Heart (72 h p.i., 30 mg/kg i.v.): 3.12 ± 0.84 %ID/g tissue
- tumor/organ ratio Kidneys (4 h): 0.4 ± 0.1
- %ID/g tissue Kidneys (4 h p.i., 30 mg/kg i.v.): 12.98 ± 2.87 %ID/g tissue
- tumor/organ ratio Kidneys (24 h): 0.5 ± 0.1
- %ID/g tissue Kidneys (24 h p.i., 30 mg/kg i.v.): 12.55 ± 0.74 %ID/g tissue
- tumor/organ ratio Kidneys (48 h): 0.5 ± 0.1
- %ID/g tissue Kidneys (48 h p.i., 30 mg/kg i.v.): 11.79 ± 2.66 %ID/g tissue
- %ID/g tissue Kidneys (72 h p.i., 30 mg/kg i.v.): 13.14 ± 5.56 %ID/g tissue
- tumor/organ ratio Liver (4 h): 0.2 ± 0.2
- %ID/g tissue Liver (4 h p.i., 30 mg/kg i.v.): 24.41 ± 3.17 %ID/g tissue
- tumor/organ ratio Liver (24 h): 0.5 ± 0.1
- %ID/g tissue Liver (24 h p.i., 30 mg/kg i.v.): 13.83 ± 3.38 %ID/g tissue
- tumor/organ ratio Liver (48 h): 0.4 ± 0.1
- %ID/g tissue Liver (48 h p.i., 30 mg/kg i.v.): 14.54 ± 2.69 %ID/g tissue
- tumor/organ ratio Liver (72 h): 0.4 ± 0.1
- %ID/g tissue Liver (72 h p.i., 30 mg/kg i.v.): 12.26 ± 2.85 %ID/g tissue
- %ID/g tissue Lung (4 h p.i., 30 mg/kg i.v.): 9.77 ± 1.75 %ID/g tissue
- %ID/g tissue Lung (24 h p.i., 30 mg/kg i.v.): 5.89 ± 3.04 %ID/g tissue
- %ID/g tissue Lung (48 h p.i., 30 mg/kg i.v.): 5.08 ± 1.93 %ID/g tissue
- %ID/g tissue Lung (72 h p.i., 30 mg/kg i.v.): 4.47 ± 2.10 %ID/g tissue
- %ID/g tissue Muscle (4 h p.i., 30 mg/kg i.v.): 1.05 ± 0.14 %ID/g tissue
- %ID/g tissue Muscle (24 h p.i., 30 mg/kg i.v.): 0.57 ± 0.19 %ID/g tissue
- %ID/g tissue Muscle (48 h p.i., 30 mg/kg i.v.): 0.60 ± 0.16 %ID/g tissue
- %ID/g tissue Muscle (72 h p.i., 30 mg/kg i.v.): 0.65 ± 0.17 %ID/g tissue
- %ID/g tissue Pancreas (4 h p.i., 30 mg/kg i.v.): 3.75 ± 1.07 %ID/g tissue
- %ID/g tissue Pancreas (24 h p.i., 30 mg/kg i.v.): 1.74 ± 0.39 %ID/g tissue
- %ID/g tissue Pancreas (48 h p.i., 30 mg/kg i.v.): 2.50 ± 1.33 %ID/g tissue
- %ID/g tissue Pancreas (72 h p.i., 30 mg/kg i.v.): 2.01 ± 0.75 %ID/g tissue
- tumor/organ ratio Serum (4 h): 0.2 ± 0.0
- %ID/g tissue Serum (4 h p.i., 30 mg/kg i.v.): 28.02 ± 4.87 %ID/g tissue
- tumor/organ ratio Serum (24 h): 0.8 ± 0.1
- %ID/g tissue Serum (24 h p.i., 30 mg/kg i.v.): 8.57 ± 3.37 %ID/g tissue
- tumor/organ ratio Serum (48 h): 1.3 ± 0.4
- %ID/g tissue Serum (48 h p.i., 30 mg/kg i.v.): 5.31 ± 2.78 %ID/g tissue
- tumor/organ ratio Serum (72 h): 1.4 ± 0.3
- %ID/g tissue Serum (72 h p.i., 30 mg/kg i.v.): 3.63 ± 1.78 %ID/g tissue
- %ID/g tissue Small intestine (4 h p.i., 30 mg/kg i.v.): 5.49 ± 1.12 %ID/g tissue
- %ID/g tissue Small intestine (24 h p.i., 30 mg/kg i.v.): 2.49 ± 0.76 %ID/g tissue
- %ID/g tissue Small intestine (48 h p.i., 30 mg/kg i.v.): 2.54 ± 0.95 %ID/g tissue
- %ID/g tissue Small intestine (72 h p.i., 30 mg/kg i.v.): 1.92 ± 0.47 %ID/g tissue
- %ID/g tissue Spleen (4 h p.i., 30 mg/kg i.v.): 4.63 ± 0.61 %ID/g tissue
- %ID/g tissue Spleen (24 h p.i., 30 mg/kg i.v.): 3.92 ± 0.66 %ID/g tissue
- %ID/g tissue Spleen (48 h p.i., 30 mg/kg i.v.): 6.01 ± 2.98 %ID/g tissue
- %ID/g tissue Spleen (72 h p.i., 30 mg/kg i.v.): 5.08 ± 1.56 %ID/g tissue
- %ID/g tissue Stomach (4 h p.i., 30 mg/kg i.v.): 2.88 ± 0.82 %ID/g tissue
- %ID/g tissue Stomach (24 h p.i., 30 mg/kg i.v.): 1.34 ± 0.22 %ID/g tissue
- %ID/g tissue Stomach (48 h p.i., 30 mg/kg i.v.): 1.60 ± 0.36 %ID/g tissue
- %ID/g tissue Stomach (72 h p.i., 30 mg/kg i.v.): 1.69 ± 0.64 %ID/g tissue
- %ID/g tissue Tumor (Tumor, 4 h p.i., 30 mg/kg i.v.): 4.49 ± 1.03 %ID/g tissue
- %ID/g tissue Tumor [1]: 6.39 ± 1.44 %ID/g tissue
- tumor uptake (highest level) [1]: 6.4 %ID/g
- %ID/g tissue Tumor (Tumor, 48 h p.i., 30 mg/kg i.v.): 6.19 ± 1.26 %ID/g tissue
- %ID/g tissue Tumor (Tumor, 72 h p.i., 30 mg/kg i.v.): 4.77 ± 1.68 %ID/g tissue
